Test results published in patent EP0624584B1, “Piperazine derivatives useful as calmodulin inhibitors” (DAIICHI PHARMACEUTICAL CO., LTD., priority 1993, dated 1994).
pIC50: −log10 of the molar value.

Key:
[1] = biological target: calmodulin-depending cyclic nucleotide phosphodiesterase (PDE); experiment: Calmodulin (CaM) inhibitory activity: inhibition of Ca/calmodulin-dependent PDE activity; type: biochemical; settings: concentration showing 50% inhibition of PDE activity potentiated by CaM; CaM and PDE from bovine brain, [3H]-cGMP, 30°C, 10 minutes
Protocol: The calmodulin inhibitory activity of a compound was evaluated by using its effect of inhibiting calmodulin-depending cyclic nucleotide phosphodiesterase (PDE) as an index. The assay for PDE inhibitory activity was carried out by the following procedure described by Thompson (Advances in Cyclic Nucleotide Research, 10, 69, 1979) with a modification. The first-stage incubation was carried out at 30°C for 10 minutes with the following reaction mixture: 50 mM Tris-HCl buffer (pH 7.5), 5 mM MgCl2, 1 mg/ml bovine serum albumin, CaM from bovine brain, [^3H]-cGMP, 1 mM CaCl2 or 1 mM EGTA, PDE from bovine brain, and a test compound in a total volume of 0.5 ml. After the incubation, the mixture was heated on a boiling water bath for 1 minute. Then, 50 µl of snake venom (1 mg/ml) was added to the reaction mixture and the whole mixture was incubated at 30°C for 10 minutes. After the incubation, 0.5 ml of AG1-X2 resin (1:1 slurry in water) was added to the mixture and centrifuged at 3000Xrpm for 20 min. The radioactivity of the supernatant solution was measured by a liquid scintillation counter. The IC50 value was determined as the concentration showing 50% inhibition of PDE activity potentiated by CaM.

[2] = system: Nitrogen-induced Hypoxia Model in Mouse; experiment: Activity on nitrogen-induced hypoxia model in mouse; type: in vivo; settings: 30 mg/kg, p.o.; 60 minutes after administration; time to respiratory standstill over that of a control group (100%)
Protocol: Nine to ten mice per group were each orally given […] of a test compound. After 60 minutes from the administration, each mouse was put in a 500 mℓ-volume transparent container having a vent hole, and nitrogen gas was introduced into the container at a rate of 5000 mℓ/min. The time from the start of nitrogen introduction to respiratory standstill was measured, and a rate of increase of the time over that of a control group (100%) was obtained.

Row | SMILES | pIC50 [1] | Rate of Increase of Survival Time [2] [%]
1 | COc1ccc(Cn2nc(CCN3CCN(c4cccc(Cl)c4C)CC3)c3cc(OC)c(OC)cc32)cc1OC [Example 12, 3-(2-(4-(3-Chloro-2-methylphenyl)-1-piperazinyl)-ethyl)-5 6-dimethoxy-1-(3,4-dimethoxybenzyl)-1H-indazole] | 5.51 | 19.2
2 | NCCCCCCNS(=O)(=O)c1cccc2c(Cl)cccc12 [Example W-7, reference compound] | 4.47 | 
3 | COc1cc2c(CCN3CCN(c4cccc(Cl)c4C)CC3)nn(Cc3c[nH]cn3)c2cc1OC [Example 15, 3-(2-(4-(3-Chloro-2-methylphenyl)-1-piperazinyl)-ethyl)-5,6-dimethoxy-1-(4-imidazolylmethyl)-1H-indazole] | 5.26 | 15.1
